Results as given in patent US6495538B2, “Zinc ionophores as therapeutic agents” (Zinc Therapeutics, Canada Inc., priority 1999, dated 2002).

How the values were obtained:
[1] = tested on: cultured HUVEC, isolated cardiac myocytes, and cultured cerebellar neurons; experiment: Zinc ionophore screening with Fura-2 loaded cells; type: cell-based, human, rabbit, mouse; conditions: for zinc ionophore activity: 1 μM zinc-complexed holo-ionophore, slope of Fura-2 fluorescence ratio 340/380 nm
Protocol: Human umbilical vein endothelial cells (HUVEC) were purchased from Clonetics (San Diego, Calif.) and passages 2-4 were used for these studies. Cells were cultured on flame-sterilized glass coverslips in Endothelial Basal Medium (Clonetics) supplemented with 10 ng/ml human recombinant epidermal growth factor, 1.0 ug/ml hydrocortisone, 50 ug/ml gentamicin, 50 ng/ml amphotetericin B, 12 ug/ml bovine brain extract and 2% v/v fetal bovine serum (all from Clonetics), in a humidified chamber at 37° C. and 5% CO2. To maintain cell populations, proliferating HUVEC were passaged at 80-90% confluency.
Cardiac myocytes were isolated from the ventricular septum of adult rabbit hearts, following collagenase digestion, in a manner similar to that described previously (Turan, B. et al., (1997) Am. J. Physiol. 272:H2095-H2106). The modification consisted of introducing low concentrations of CaCl2 during the perfusion with collagenase and the dispersion of the myocytes. Hearts were perfused for about 2 min by gravity under a hydrostatic pressure of 1 m, with a nominally Ca^2+-free solution containing (in mM): NaCl, 145; KCl, 5; MgSO4, 1.2; Na2HPO4, 1.8; HEPES, 5; glucose, 10; pH adjusted to 7.4 with NaOH. Forty ml of this perfusate were then supplemented with collagenase (1 mg/ml) and perfusion was continued with recirculation. […] The flow rate was then adjusted to 15 ml/min and 50 μM CaCl2 was added to the collagenase solution. Perfusion with this solution was continued for another 15 to 18 min, followed by a 2 min washout of the enzyme with fresh perfusate containing 100 μM CaCl2 and no collagenase. The hearts were then removed from the apparatus and the ventricular septum isolated and minced. Dissociation of the cells was obtained by gentle agitation of the minced tissue in 50 ml of the same perfusing solution. Following filtration through a 200 μm nylon mesh, the cells were allowed to settle and the supernatant was replaced with a solution containing 2 mM CaCl2. Cells were kept at 37° C. in this pre-oxygenated solution and were studied within 8 hours after isolation, cellular viability was ensured by regularly replacing the incubation solution.
Primary cultures of mouse cerebellar granule neurons were obtained from dissociated cerebella of postnatal day 8 or 9 mice according to the following protocol (Cregan et al., (1999) J. Neurosci. 19:7860-7869, incorporated herein by reference). Brains were removed and placed into separate dishes containing solution A (124 mM NaCl, 5.37 mM KCl, 1 mM NaH2 PO4 , 1.2 mM MgSO4 , 14.5 mM D-(1)-glucose, 25 mM HEPES, 3 mg/ml BSA, pH 7.4) in which the cerebella were dissected, meninges removed, and tissue sliced into small pieces. The tissue was briefly centrifuged and transferred to solution A containing 0.25 mg/ml trypsin, then incubated at 37° C. for 18 min. After the addition of 0.082 mg/ml trypsin inhibitor (Boehringer Mannheim, Indianapolis, IN) and 0.25 mg/ml DNase I (Boehringer Mannheim), the tissue was incubated at 25° C. for 2 min. After a brief centrifugation, the resulting pellet was gently titrated in solution A yielding suspension that was further incubated for 10 min at 25° C. in solution A containing 2.7 mM MgSO4 and 0.03 mM CaCl2. After a final centrifugation the pellet was resuspended in EMEM media (Sigma, St. Louis, Mo.) containing 10% dialyzed FBS (Sigma), 25 mM KCl, 2 mM glutamine (Life Technologies BRL, Gaithersburg, Md.), 25 mM glucose, and 0.1 mg/ml gentamycin (Sigma) and filtered through a cell strainer (size 70 μm; Falcon). Cells were plated on glass coverslips coated with poly-D-lysine (Sigma) in Nunc four-well dishes at a density of 1.5×10^6 cells per milliliter of medium. Cytosine-β-arabinoside (10 μM; Sigma) was added 24 hr after plating.
In order to ascertain that the transported ion was indeed Zn^2+, and not some other divalent cation contaminant, the test compounds were first complexed with zinc.

[2] = tested on: Human umbilical vein endothelial cells (HUVEC)
Protocol: Human umbilical vein endothelial cells (HUVEC) were purchased from Clonetics (San Diego, Calif.) and used from passages 2-4. Cells were cultured on gelatin-coated culture dishes in Endothelial Basal Medium (Clonetics) supplemented with 10 ng/ml human recombinant epidermal growth factor, 1.0 ug/ml hydrocortisone, 50 ug/ml gentamicin, 50 ng/ml amphotetericin B, 12 ug/ml bovine brain extract and 2% v/v fetal bovine serum, in a humidified chamber at 37° C. and 5% CO2. To maintain cell populations, proliferating HUVEC were passaged at 80-90% confluency.
HUVEC were grown to confluency, and then given an additional 24 hours to achieve quiescence prior to experimental treatment. The following treatments were performed:
The cells were washed twice with 37° C. D-PBS and then irradiated in fresh media. Irradiated cells received a dose of 1000 Rads of gamma-irradiation from a ^137Cesium source (Atomic Energy of Canada). The cells were then incubated for 2 hours (cytosolic and nuclear protein extraction) or 8 hours (Hoechst staining and DNA electrophoresis).
Cells were grown on round, gelatin coated 12 mm glass coverslips, and following treatment, were fixed with 0.5 ml of 1% glutaraldehyde in PBS for 10 minutes at room temperature (RT). […] The nuclear morphology of the cells was then visualized under a Zeiss Axiophot fluorescence microscope.

[3] = tested on: PC12 cells; experiment: Differentiated PC12 cells, H2O2-induced apoptosis; type: cell-based, rat; conditions: concentrations equivalent to those of zinc-pyrithione; not shown
Description: Control cells were pretreated with the carrier DMSO alone.

[4] = tested on: PTZ-induced seizures; experiment: Subcutaneous PTZ (pentylenetetrazole) test; type: in vivo, rat; conditions: 62.5 nmol/kg i.p.
Description: The ability of a test compound to inhibit PTZ-induced clonic and tonic convulsions is currently regarded as predictive of efficacy against “absence” seizures and/or myoclonic seizures (Suzdak, Jansen, 1995, Epilepsia, 36(6):612-626). The pharmacological profile of the PTZ test varies depending on the endpoint selected: PTZ can produce myoclonic jerks, repeated clonic seizures of forelimbs and hindlimbs with and without loss of righting reflex, and loss of righting reflex followed by tonic extension of the forelimbs and hind limbs. To have the full picture of the PTZ-induced seizures and of the effects of zinc ionophores, and to make the model more discriminative (White at al., supra) the behavioral reaction of each rat was monitored for a period of 2 hours which is much longer than the usual time period in conventional screening experiments.
PTZ (120 mg/kg) was administered subcutaneously to male Wistar rats (300-450 g). Zinc ionophores were injected i.p. in one bolus, 30 min before PTZ at a dose of 62.5 nmol/kg and a total volume of 0.25-0.4 ml.

In the case of `COc1ccc2c(c1)c(CC(=O)O)c(C)n2C(=O)c1ccc(Cl)cc1` [Indomethacin], the zinc ionophore activity [1] is reported as “Indomethacin ✓”.

In the case of `CCN(CC)C(=S)SSC(=S)N(CC)CC` [Disulfiram], the zinc ionophore activity [1] is reported as “Disulfiram ✓✓”.

With `CC1=C(/C=C/C(C)=C/C=C/C(C)=C/CO)C(C)(C)CCC1` [Vitamin A (all-trans-retinol), all-trans-retinol] the zinc ionophore activity [1] was “Vitamin A (all-trans-retinol) ✓”.

In the case of `[Na+].[O-][n+]1ccccc1[S-]` [sodium-pyrithione], the “apoptosis in irradiated HUVEC” value ([2]; 1000 Rads gamma-irradiation, 8 hours) is reported as “not effective” and the “apoptosis caused in control cultures” value ([2]; non-irradiated HUVEC) is reported as “No apoptosis”.

`S=C(S)N1CCCC1` [Pyrrolidinedithiocarbamate] was tested, and the zinc ionophore activity [1] was “Pyrrolidinedithiocarbamate ✓✓”.

`[Zn+2]` [Zn^2+] was tested, and the “apoptosis of H2O2-treated cells” value [3] was “did not block apoptosis”.

With `Oc1c(I)cc(I)c2cccnc12.[Zn]` [ZDIHQ, zinc 5,7-diiodo-8-hydroxyquinoline] the zinc ionophore activity [1] was 5,7-Diiodo-8-hydroxyaquinoline ✓✓, the “ionophore activity compared between cell types” value ([1]; HUVEC, cardiac myocytes, cerebellar neurons) was “comparable in all three cell types tested” and the “latency of clonus with loss of righting reflex” value ([4]; M ± S.E.M.) was 21.2 ± 2.7 min. For the same compound, the “latency of clonus without loss of righting reflex” value ([4]; M ± S.E.M.) was 15.6 ± 1.7 min, the “latency of tonic seizure” value ([4]; M ± S.E.M.) was 28.4 ± 4.1 min and the “increase of survival time (mean time to death) of non-survivors” value ([4]; rats which died within 2 h) was 1.6 fold.

For `Cc1c(C)c2c(c(C)c1O)CC[C@@](C)(CCC[C@H](C)CCC[C@H](C)CCCC(C)C)O2` [Vitamin E (alpha-tocopherol), alpha-tocopherol], the zinc ionophore activity [1] was “Vitamin E (alpha-tocopherol) ✓”.

In the case of `Oc1cccc2cccnc12` [8-Hydroxyquinoline], the zinc ionophore activity [1] is reported as 8-Hydroxyquinoline, ✓.
